Entries after “also recorded” stand apart in the source; their conditions may differ.
Experiments:
[1] = tested on: p21 expression; assay: p21 promoter activity (luciferase) and p21 protein expression; type: cell-based
Procedure: (§1) 18. […] (A) Akt suppressed androgen/AR-induced p21 promoter activity. […] (B) Androgen/AR-induced PC-3(AR)6 apoptosis and p21 protein expression was blocked by Akt PC-3(AR)6 was transfected with pCDNA3, cAkt, or dAkt, as indicated, for 16 h. […] (C) AR-induced p21 protein expression was enhanced by dAkt in LNCaP cells. […] LNCaP stable transfection with dAkt was confirmed by western blot assay using phospho-Akt (Ser473) antibody. […] TPA was then added for another 24 h and cell apoptosis was determined by TUNEL assay. […] IGF-1 was added for another 30 min, followed by 10 nM TPA treatment for another 24 h. The apoptosis was determined by TUNEL assay. The data are means±s.d. from three independent experiments.

[2] = tested on: estrogen receptor (ER) transactivation; assay: ER transactivation, ERE-luc in PC-3 cells transfected with ERα; type: cell-based, human; details: 10 nM E2
Procedure: 26. […] The cells were harvested and assayed for luciferase activity using MMTV-luc as a reporter. […] The cells were harvested for Northern blot analysis. […] The cells were harvested and assayed for the luciferase activity. […] (E) The PC-3 cells were transfected with ERα along with plasmids, as indicated, using ERE-luc as a reporter for 16 h, followed by 10 nM E2 treatment for another 16 h. The cells were harvested for luciferase assay. Data are means±s.d. from three independent experiments.
312. […] The cells were lysed and the luciferase activity was detected by the dual luciferase assay according to standard procedures.

[3] = tested on: AR transactivation; assay: AR transactivation, MMTV-luc / (ARE)4-luc luciferase reporter assay; type: cell-based; details: LNCaP; MMTV-luc and (ARE)4-luc; 10 nM DHT
[4] = tested on: Akt; assay: Akt activity in LNCaP cells, Western blot with phospho-Akt (Ser473) antibody; type: cell-based; details: LNCaP cells stably transfected with dAkt
Procedure: as §1
31. […] (D) The LNCaP cells were transfected with plasmids as indicated for 16 h, and the medium was changed to 0.1% CDS media for 2 days. The cell apoptosis was determined by TUNEL assay (E) The LNCaP cells were transfected with plasmids as indicated for 16 h, harvested, and the cell extracts were subjected to SDS-PAGE. The Akt activity was determined by Western blotting using phospho(S473)-Akt antibody. (F) The U87MG cells were transfected with plasmids as indicated for 16 h, and the medium was changed 0.1% CDS media for 2 days. The cell apoptosis was determined by TUNEL assay. Data for luciferase activity and apoptosis are means±s.d. from three independent experiments.

[5] = tested on: AR transactivation; assay: AR transactivation, MMTV-CAT reporter in DU145 cells transfected with AR; type: cell-based, human
Source text: 250. To dissect the divergent effects of IL-6 in prostate tumor growth, Qui, Y. et al., Nature 393, 83-85 (1998); Hobisch, A. et al., Cancer Res. 58, 4640-4645 (1998); Ritchie, C. K. et al., Endocrinology 138, 1145-1150 (1997), the potential influences of IL-6 on the transactivation of AR, the master regulator of the prostate tumor growth were studied. Chang, C. et al., Science 240, 324.326 (1988); Chang, C. et al., Crit. Rev. Eukaryotic Gene Expression 5, 97-125 (1995). Because IL-6 has two major signal cascades, mitogen-activated protein kinase (MAPK) and phosphatidylinositol 3-kinase (PI3K), Qui, Y. et al., Nature 393, 83-85 (1998); Qui, Y. et al., Proc. Natl. Acad. Sci. USA 95, 3644-3649 (1998), inhibitors were applied to specifically block one of these two IL-6 signal pathways. DU145 cells were transfected for 24 h with AR and MMTV-CAT reporter gene. After transfection, the cells were serum starved for 24 h. Next, 20 μM LY294002, P098059 or vehicle was added to serum-free medium 30 min prior to IL-6 treatment. […] The cells were then harvested and AR transactivation was measured by CAT activity. […] Vlahos, C. J. et al., J. Biol. Chem. 269, 5241-5148 (1994). […] Alessi, D. R. et al., J. Biol. Chem. 270, 27489-27494 (1995).
251. IL-6's effect on PI3K activity was tested. After serum starvation for 24 h, LNCaP, PC-3 or DU145 cells were treated with 50 μg/ml IL-6 for 30 minutes. The cells were then harvested. PI3K activity was measured by using phosphatidylinositol (PT) as a substrate. […] The transactivation was measured by CAT activity.
252. Focus then turned to the two major downstream effectors of PI3K: a serine/threonine kinase (Akt/PKB) and a ribosomal S6 kinase (p70S6k). Franke, T. F. et al., Cell 88,435-437 (1997). […] The transactivation activity was determined after 24 h transfection.
262. The DU145 and PC-3 cells were maintained in Dulbecco's Minimum Essential Medium (DMEM) containing penicillin (25 μg/m1), streptomycin (25 μg/ml), and 5% fetal calf serum (FCS). The LNCaP cells were maintained in RPMI-1640 with 10% FCS. Transfections were performed using the calcium phosphate precipitation method, as previously described. Yeh, S. et al., Proc. Natl. Acad. Sci. USA 93, 5517-5521(1996).
277. The DU145 and PC-3 cells were maintained in Dulbecco's Minimum Essential Medium (DMEM) containing penicillin (25 U/ml), streptomycin (25 μg/ml), and 5% fetal calf serum (FCS). The LNCaP cells were maintained in RPMI-1640-10% FCS. Transfections were performed using the calcium phosphate precipitation method in PC-3 and DU145, as previously described. Yeh, S., Lin, H. K., Kang, H. Y., Thin, T. H., Lin, M. F. & Chang, C. (1999) Proc Natl Acad Sci U S A 96, 5458-63. LNCaP cells were transfected using SuperFect™ according to standard procedures (Qiagen).

“dAkt: dominant-negative Akt, a kinase deficient mutant, K179A” was tested, and the “p21 expression in response to androgen” value ([1]; LNCaP stably transfected with dAkt, 10 nM DHT 2 days, 2.5 fold without dAkt) was 14.5 fold, the “Effect on androgen/AR-induced p21 expression” value ([1]; PC-3 cells, transfected) was “enhanced p21 expression in a dose-dependent manner” and the “Effect on ER transactivation” value [2] was “suppressed ER transactivation”. The “Effect on AR transactivation” value [3] was “enhanced AR transactivation in both MMTV-Luc and (ARE)4-Luc”, the “Reduction in Akt activity” value [4] was 50% and the “Effect on DHT-induced AR transactivation (CAT activity)” value ([5]; presence of androgen) was “induce AR transactivation in a dose-dependent manner; also recorded: induce wtAR transactivation in a dose-dependent manner”. The “Effect on p110/p110*-repressed AR transactivation” value ([5]; rapamycin 20 nM 30 min prior to 1 nM DHT, dAkt co-transfected) was “reversed the p110-repressed AR transactivation; also recorded: reversed this p110*-repressed AR transactivation”.

— patent US20040235717A1, “Suppression of androgen receptor transactivation through new pathways to ar and ar coactivators and repressors” (priority 2001, published 2004)
